Biological target: T1, PECT (Drosophila melanogaster, UniProt Q9VK25)
T1 construct: pect cDNA in pMAL, N-terminal MBP fusion (tag kept), E. coli BL21 (DE3), amylose column
Assay: LC-MS (SRM) detection of CDP-ethanolamine product
Type: biochemical
Conditions: 1 mM phosphoethanolamine, 2 mM CTP, 10 mM MgCl2, 1 mM DTT, 1 uM MBP-PECT, pH 7.7, 37 °C, 15 min

T1 sequence (Q9VK25 1-393): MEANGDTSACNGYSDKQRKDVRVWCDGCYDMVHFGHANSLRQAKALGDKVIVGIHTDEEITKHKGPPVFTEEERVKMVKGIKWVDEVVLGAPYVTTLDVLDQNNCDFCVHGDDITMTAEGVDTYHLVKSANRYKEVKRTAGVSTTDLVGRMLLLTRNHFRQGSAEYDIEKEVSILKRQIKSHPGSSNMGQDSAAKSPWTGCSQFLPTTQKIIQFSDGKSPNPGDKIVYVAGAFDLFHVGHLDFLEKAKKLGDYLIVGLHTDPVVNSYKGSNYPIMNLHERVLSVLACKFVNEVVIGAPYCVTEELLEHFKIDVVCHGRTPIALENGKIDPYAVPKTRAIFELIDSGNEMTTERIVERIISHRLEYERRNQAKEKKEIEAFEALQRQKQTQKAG

Row | Compound | LC-MS (SRM) detection of CDP-ethanolamine product
1 | Nc1ccn([C@@H]2O[C@H](COP(=O)(O)OP(=O)(O)OP(=O)(O)O)[C@@H](O)[C@H]2O)c(=O)n1 [CTP] | CDP-ethanolamine was detected by the mass spectrum after incubating phosphoethanolamine and CTP with PECT
2 | NCCOP(=O)(O)O [phosphoethanolamine] | CDP-ethanolamine was detected by the mass spectrum after incubating phosphoethanolamine and CTP with PECT
